# Measured values published in patent publication US20130202649A1, “ACTIVATION OF INNATE IMMUNITY FOR NUCLEAR REPROGRAMMING OF SOMATIC CELLS” (The Board of Trustees of the Leland Stanford Junior …, priority 2012, published 2013).
# Columns and labels:
# [1] = tested on: MEFs expressing a dox-inducible polycistronic transgene construct encoding the four reprogramming factors; experiment: Doxycycline-inducible iPSC generation from secondary MEFs; type: cell-based, mouse; settings: Dox-treated MEFs
# Method: To further test the hypothesis that TLR3 activation was required for efficient reprogramming, we isolated MEFs from murine embryos expressing a doxycycline (Dox)-inducible polycistronic transgene construct encoding the four reprogramming factors. To generate iPSCs, 10^5 MEFs/per well in 6-well plates were treated with Dox. In some wells, poly I:C was also added for the initial 6 days of the reprogramming process. In other wells, cells were infected with pMX-GFP on the first day of Dox treatment. Poly I:C or pMX-GFP each accelerated the expression of Oct4 and Sox2 (FIG. 6A). […] Similarly, infection with pMX-GFP seemed to accelerate colony formation, as a number of small colonies were observed by day 7 in the viral particle infected group (FIG. 16). By day 14, typical mES-like colonies appeared, many of which had activated SSEA-1. At this time point, the number of typical SSEA-1^+ colonies were increased by 7-8 fold in wells exposed to viral particles or poly I:C (FIG. 6B). Colony number increased further by day 21-28 (FIGS. 6B and 6C). […]
# Doxycycline-induced iPSCs: As previously described (Wernig et al., 2008), MEFs from chimeric embryos at E13.5 were isolated. […] The generation of iPSC colonies was monitored daily and scored at days 14 and 21. […]
# [2] = tested on: human BJ fibroblasts; experiment: Temporal target and pluripotency gene expression (qPCR) after retroviral vector, CPP or TLR3 agonist treatment; type: cell-based
# Description: In an effort to understand and overcome this failure, we examined the temporal sequence of target gene expression in response to a retroviral construct (pMX-Sox2) versus the corresponding CPP(CPP-SOX2). We focused on validated downstream targets such as Jarid2, Zic2, and bMyb for Sox2-activated genes, as well as, downstream genes known to function in nuclear reprogramming, i.e. Nanog, Sox2 and Oct4. Human fibroblasts were synchronized by serum starvation and then subjected to either a single infection with pMX-Sox2 or daily treatments of CPP-SOX2, and gene expression was assayed over 6 days.
# Viral preparation and infection HEK293FT cells were plated at 6×10^6 cells per T225 flask and incubated overnight. Cells were transfected with 10 μg of VSV-G (envelope protein), 15 μg of pUMVC (packaging plasmid) and 10 μg of gene of interest (Sox2 or Oct4) with Lipofectamine. 48 hours after transfection, the supernatant of transfectant was collected and filtered through a 0.45 μm filter. Following spinning at 17,100 rpm for 2 hr 20 min, the viral pellet was resuspended to make 100× stock solutions. Human fibroblasts were seeded at 5×10^4 cells per well of a 6-well dish a day before transduction. The medium was replaced with virus-containing supernatant supplemented with 8 μg/ml polybrene, and incubated for 24 hr.
# Treatments At 60-70% confluency, BJ fibroblast cells were serum-starved using 1% serum to induce G1 cell cycle arrest. The synchronized BJ fibroblasts were then subjected to either a single infection with retroviral constructs or daily treatments with 200 nM CPPs (CPP-SOX2 or CPP-OCT4). Poly I:C (300 ng/ml) was added to the cells simultaneously with the CPPs. For experiments involving peptide inhibitors, cells were pretreated for 6 hrs at 40 uM with either MyD88 inhibitory peptide (Pepinh-MyD) or TRIF inhibitory peptide (Pepinh-TRIF) followed by CPP treatments.
# Gene Expression and Microarray Analyses RNA was isolated with the RNeasy kit. First-strand cDNA was primed with oligo(dT) primers and qPCR was performed with primer sets from Applied Biosystems. […]
# [3] = tested on: human fibroblasts; experiment: CPP-induced generation of human iPSCs; type: cell-based
# Description: It is known that persistent expression (about 2 weeks) of the reprogramming factors is required using viral vectors to generate mouse iPSCs. […] We hypothesized that activation of the TLR3 pathway might facilitate epigenetic alterations required for full transcriptional effect of the CPPs. We also attempted to mimic the biphasic effect of the reprogramming factors introduced as viral vectors by reducing the dose of CPPs after 6 days. Accordingly, we exposed human fibroblasts to the four CPP-transcription factors (Oct4-R11, Sox2-R11, Klf4-R11 and cMyc-R11) (at a dose of 200 nM for days 1-6, and a dose of 100 nM for days 7-21), in the presence or absence of poly I:C (300 ng/ml) for days 1-6 (FIG. 7A). The cultures were transferred to feeder cells (inactivated MEFs) at day 26. In the presence of poly I:C, Oct4 expression was accelerated (FIG. 7B). […] Small colonies were observed by day 21 and ES like colonies appeared by day 30, many of which expressed TRA-1-81 as indicated by live cell staining. By contrast, in human fibroblasts not exposed to poly I:C, colonies were not observed until day 30 days. By day 40, colony number was increased by more than 4-fold in cells exposed to poly I:C (FIG. 7C). Application of our insights regarding the role of TLR3 signaling in nuclear reprogramming permitted us to successfully reprogram human fibroblasts to pluripotency using CPPs.
# Protein-iPSCs: Recombinant Oct4, Sox2, Klf4, and cMyc human proteins (CPPs) contained an eleven-arginine membrane penetration domain at the C terminus were obtained from Stemgent. Human fibroblasts were treated with CPPs encoding the reprogramming factors (CPP-Oct4, CPP-Sox2, CPP-Klf4 and CPP-Myc) daily for 6 days with 200 nM CPPs, followed by daily treatments of 100 nM CPPs from day 7 to day 20. Poly I:C (300 ng/ml) or vehicle was added to the cell simultaneously only up to day 6. The cells were passed onto MEF feeders at day 30. After 20 days of CPP treatments, wells were closely scanned for colonies.
# Immunostaining of Live Cells For the detection of SSEA-1 or TRA-1-81 in live cells, the primary Ab (anti-mouse SSEA-1, antihuman TRA-1-81, Stemgent) was diluted to a final concentration of 2.5 to 5 μg/ml in fresh cell culture medium and incubated with cells for 30 minutes at 37° C. and 5% CO2. After gentle washing the cells were examined under a fluorescent microscope.
substance,measurement,setting,value
Polyinosinicpolycytidylic acid [Poly I:C],changes in the morphology of the MEFs,[1]; 3 days,accelerated changes in the morphology
same,expression of Oct4 and Sox2,[1]; poly I:C initial 6 days or pMX-GFP on first day,accelerated
same,target and pluripotency gene expression,"[2]; agent alone, CPP 200 nM daily or single infection on Day 0, assayed over 6 days",unaffected
same,temporal expression of the downstream genes induced by CPP-OCT4,[2]; combined with CPP-OCT4 200 nM daily,accelerated
same,expression of the downstream genes induced by CPP-SOX2,"[2]; combined with CPP-SOX2 200 nM daily, poly I:C 300 ng/ml",accelerated
same,increase in colony number,"[3]; day 40, cells exposed to poly I:C versus not",more than 4 fold
same,Oct4 expression,"[3]; four CPPs 200 nM days 1-6, 100 nM days 7-21, poly I:C 300 ng/ml days 1-6",accelerated
same,iPSC generation,[3]; four CPPs plus poly I:C 300 ng/ml days 1-6,accelerated iPSC generation
same,small colonies observed by,"[3]; four CPPs plus poly I:C 300 ng/ml days 1-6, without poly I:C not until day 30",≤ 21 days
